In patent publication US20240246941A1, “SUBSTITUTED 4-(3-AMINOPROP-1-YL)AMINOQUINOLINE ANALOGS AS MODULATORS OF MELANOMA-ASSOCIATED ANTIGEN 11 UBIQUITIN LIGASE” (ST. JUDE CHILDREN'S RESEARCH HOSPITAL, INC., priority 2020, published 2024):
Read-outs that look alike come from different tables or passages of the source. Where a SMILES comes first, the peptide text is derived from it. [ ]: non-standard residue; d: D form. Phe(4-CN) = N#Cc1ccc(C[C@H](N)C(=O)O)cc1; Phe(3-Me) = Cc1cccc(C[C@H](N)C(=O)O)c1

Target: interaction between GST-MAGEA11 MHD and FAM-PCF11_4 peptide (MAGE-A11:PCF11) (Homo sapiens (Human), UniProt P43364)
Sequence (P43364 218-429): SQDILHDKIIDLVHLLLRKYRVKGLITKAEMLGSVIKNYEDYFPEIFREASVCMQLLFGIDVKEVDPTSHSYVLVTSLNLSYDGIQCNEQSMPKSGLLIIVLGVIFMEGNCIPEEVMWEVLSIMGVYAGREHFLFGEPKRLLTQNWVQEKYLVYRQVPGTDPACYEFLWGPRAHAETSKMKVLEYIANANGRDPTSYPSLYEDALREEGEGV
Experiment: TR-FRET dose response competition assay for disruption of MAGE-A11:PCF11 binding
Text: TR-FRET Assays and High-throughput Screen. Terbium-anti-GST antibody, 1 M Tris pH 7.5 1 M MgCl2 and 1 M DTT were purchased from Invitrogen (Carlsbad, CA), BSA was purchased from Sigma (St. Louis, MO). Dimethyl sulfoxide (DMSO) was purchased from Fisher Scientific (Pittsburgh, PA). Black 384-well low volume plates and 384-well polypropylene compound plates were purchased from Corning Incorporated (Tewksbury, MA). The St. Jude FDA drug and Bioactive library (11,293 chemicals), Drug-like library (10,073 chemicals) and Lead-like library (10,041 chemicals) were custom assembled and purchased from commercial sources including Sigma, Microsource (Gaylordsville, CT), selleckchem (Houston, TX), ChemDiv (San Diego, CA), ChemBridge (San Diego, CA), Enamine (Monmouth Jct., NJ), and Life Chemicals (Niagara-on-the-Lake, ON, Canada). They were arrayed (10 mM in DMSO) in 384-well polypropylene compound plates with columns 1, 2, 13 and 14 empty which were reserved for controls.
The TR-FRET assay buffer with a formula of 50 mM Tris pH 7.5, 20 mM MgCl2, 0.1 mg/ml BSA and 1 mM DTT was freshly prepared before each experiment. All TR-FRET assays were performed in black 384-well plates with 20 μl/well assay volume in the TR-FRET assay buffer at room temperature (approximately 25° C.). All peptides or compounds were solubilized in DMSO. To test the competitive activity of peptides or compounds against the interaction between GST-MAGEA11 MHD and FAM-PCF11_4 peptide, 10 μl/well peptide or compound at specified concentration was dispensed into a black 384-well low volume plate, followed by 5 μl/well FAM-PCF11_4 (800 nM), 5 μl/well Tb-anti-GST (20 nM) and GST-MAGEA11 MHD (20 nM). The assay components in each well was then mixed by shaking the plate on an IKA MTS 2/4 digital microtiter plate shaker (IKA Works; Wilmington, NC, USA) at 900 RPM for 1 minute. The plate was further centrifuged in an Eppendorf 5810 centrifuge with an A-4-62 swing-bucket rotor (Eppendorf AG, Hamburg, Germany) at 201 g (1000 rpm) for 30 seconds. The plate was then incubated for 90 min with a lid to avoid light exposure to the assay components. After incubation, the fluorescent emission signals at 520 nm and 490 nm channels of individual wells were measured with a PHERAstar FS plate reader (BMG Labtech; Durham, NC, USA) by using a 340 nm excitation filter, 100 μs delay time, and 200 μs integration time. The TR-FRET fluorescence emission ratio (TR-FRET signal) for each well was presented as 10 000×520 nm/490 nm, which was used directly for curve fitting, or further converted to % Inhibition based on the respective positive and negative controls. The graphic software GraphPad Prism 4.81 (GraphPad Software; La Jolla, CA, USA) was used to generate curves and derive IC50 values of tested peptides or compounds, if applicable.
TR-FRET inhibitory activity characterization of a panel of PCF11 peptides against the interaction between GST-MAGEA11 MHD and FAM-PCF11_4 was performed as follows. In a 20 μl/well assay volume, dilutions of PCF11_1 to PCF11_8 peptides (concentrations ranged from 3.1 nM to 100 μM for peptides PCF11_4, PCF11_5, PCF11_6 and PCF11_8 in a 1-to-2 dilution pattern for 16 concentration levels, and ranged from 48.9 nM to 100 μM for peptides of PCF11_1, PCF11_2, PCF11_3 and PCF11_7 in a 1-to-2 dilution pattern for 12 concentration levels), 200 nM FAM-PCF11_4, 5 nM Tb-anti-GST and 5 nM GST-MAGEA11 were mixed together and incubated for 90 min before the TR-FRET signal for each well was measured. The final DMSO concentration was 1.1% (v/v). […] The signal of each peptide-treated well (Signalpeptide) was normalized to the positive and negative controls to derive % inhibition of the peptide at a specific concentration with equation 1. Where applicable, the % Inhibition data were fit into a Sigmoidal dose response equation to derive IC50 values.
TR-FRET screen for identifying MAGEA11 small molecule inhibitors was performed as follows.

[1] = PCF11 peptides, read-out: IC50 of PCF11 peptides binding to GST-MAGE-A11 by TR-FRET
[2] = Dose response TR-FRET screening of nine scaffold groups against MAGE-A11:PCF11, read-out: consensus IC50

Compound	IC50 [2] [µM]	other results
CC[C@H](C)[C@H](NC(=O)[C@H](CCC(N)=O)NC(=O)[C@H](Cc1c[nH]cn1)NC(=O)[C@@H](NC(=O)[C@@H](NC(=O)[C@@H](NC(=O)[C@H](CC(C)C)NC(=O)[C@@H](N)Cc1ccccc1)C(C)C)C(C)C)C(C)C)C(=O)N[C@@H](CCCNC(=N)N)C(=O)N[C@@H](CCC(N)=O)C(=O)N[C@@H](CC(C)C)C(=O)N[C@@H](Cc1cccc(C)c1)C(=O)N[C@@H](CCC(N)=O)C(=O)O [3-methyl-phenylanaline] (H-FLVVVHQIRQL[Phe(3-Me)]Q-OH; N-terminus and C-terminus assumed)	–	IC50 [1]: 0.0017 µM
CC[C@H](C)[C@H](NC(=O)[C@H](CCC(N)=O)NC(=O)[C@H](Cc1c[nH]cn1)NC(=O)[C@@H](NC(=O)[C@@H](NC(=O)[C@@H](NC(=O)[C@H](CC(C)C)NC(=O)[C@@H](N)Cc1ccccc1)C(C)C)C(C)C)C(C)C)C(=O)N[C@@H](CCCNC(=N)N)C(=O)N[C@@H](CCC(N)=O)C(=O)N[C@@H](CC(C)C)C(=O)N[C@@H](Cc1ccc(C#N)cc1)C(=O)N[C@@H](CCC(N)=O)C(=O)O [4-cyano-phenylalaninnne] (H-FLVVVHQIRQL[Phe(4-CN)]Q-OH; N-terminus and C-terminus assumed)	–	IC50 [1]: 0.663 µM
COc1ccc(F)cc1CNCCCNc1ccnc2cc(Cl)ccc12 [SJ000000500-3]	69.9	–
COc1ccc(F)cc1CNCCCNc1ccnc2cc(Cl)ccc12 [SJ000000500]	–	IC50 (Table 8, representative compounds, read-out: TR-FRET IC50): 69.9 µM
N#Cc1nc(-c2ccc(Cl)cc2)oc1N1CCOCC1 [SJ000010022-1]	69.9	–
N#Cc1nc(-c2ccc(F)cc2)oc1N1CCOCC1 [SJ000011204-1]	69.9	–
CCCN1C(=O)c2ccccc2NC1c1ccc(O)c(OCC)c1 (stereo not shown) [SJ000019510-1]	69.9	–
Cc1ccc(C2Nc3ccccc3C(=O)N2Cc2ccccc2)cc1 (stereo not shown) [SJ000019545-2]	69.9	–
O=C1c2ccccc2NC(c2ccc(Br)cc2)N1Cc1ccccc1 (stereo not shown) [SJ000019546-2]	69.9	–
O=C1c2ccccc2NC(c2ccc(Cl)cc2)N1Cc1ccccc1 (stereo not shown) [SJ000019547-2]	69.9	–
Cc1ccc(S(=O)(=O)N2CCN(C3=C(Cl)C(=O)c4ccccc4C3=O)CC2)cc1 [SJ000021282-1]	10.4	–
O=C(O)c1cccc(NC2=C(Cl)C(=O)c3ccccc3C2=O)c1 [SJ000022282-2]	69.9	–
O=C1C(Cl)=C(Nc2ccc(Br)cc2)C(=O)c2ccccc21 [SJ000024921-1]	69.9	–
CC(=O)Nc1ccc(NC2=C(Cl)C(=O)c3ccccc3C2=O)cc1 [SJ000024922-1]	69.9	–
CCCCOC(=O)c1ccc(NC2=C(Cl)C(=O)c3ccccc3C2=O)cc1 [SJ000024923-1]	69.9	–
O=C1C(Cl)=C(Nc2cccc(C(F)(F)F)c2)C(=O)c2ccccc21 [SJ000024924-2]	69.9	–
Cc1cccc(NC2=C(Cl)C(=O)c3ccccc3C2=O)c1 [SJ000024925-1]	69.9	–
COC(=O)c1cccc(NC2=C(Cl)C(=O)c3ccccc3C2=O)c1 [SJ000024926-1]	69.9	–
O=C1C(Cl)=C(NC(=O)C(F)(F)F)C(=O)c2ccccc21 [SJ000024928-1]	9.87	–
CC(=O)N(C1=C(Cl)C(=O)c2ccccc2C1=O)c1cccc(I)c1 [SJ000024931-1]	69.9	–
Cc1cccc(NC2=C(N)C(=O)c3ccccc3C2=O)c1 [SJ000024934-1]	69.9	–
CC(=O)N(C1=C(Cl)C(=O)c2ccccc2C1=O)c1ccc(C(=O)O)cc1 [SJ000024935-1]	69.9	–
CC(=O)N(C1=C(Cl)C(=O)c2ccccc2C1=O)c1ccc(F)cc1 [SJ000024947-1]	69.9	–
CCCN1C(=O)c2ccccc2NC1c1ccc(F)cc1 (stereo not shown) [SJ000026516-2]	69.9	–
CCCN1C(=O)c2ccccc2NC1c1ccc(OC)c(OC)c1 (stereo not shown) [SJ000026517-1]	69.9	–
CCCN1C(=O)c2ccccc2NC1c1ccc(OC)cc1 (stereo not shown) [SJ000026518-2]	69.9	–
O=C1c2ccccc2NC(c2ccc(F)cc2)N1Cc1ccccc1 (stereo not shown) [SJ000026596-1]	69.9	–
Cc1ccc(S(=O)(=O)c2nc(-c3cccc(C)c3)oc2N2CCOCC2)cc1 [SJ000027480-1]	11.2	–

Compound	IC50 [2] [µM]	other results
O=S(=O)(c1ccc(Cl)cc1)c1nc(-c2cccc(Br)c2)oc1N1CCOCC1 [SJ000027481-1]	9.2	–
Cc1ccc(S(=O)(=O)c2nc(-c3cccc([N+](=O)[O-])c3)oc2N2CCOCC2)cc1 [SJ000027482-1]	9.54	–
C=C1C(Cl)=C(N2CCN(S(=O)(=O)c3ccc(Cl)cc3)CC2)C(=O)c2ccccc21 [SJ000029651-1]	69.9	–
CCOc1ccc(N(C(C)=O)C2=C(Cl)C(=O)c3ccccc3C2=O)cc1 [SJ000030567-2]	69.9	–
O=C(CNC(=O)c1ccc2[nH]c3ccccc3c2c1)NCCO [SJ000031064-1]	69.9	–
O=C(NCCO)c1ccc2[nH]c3ccccc3c2c1 [SJ000031065-1]	69.9	–
CCOC(=O)c1ccc(NC2=C(N)C(=O)c3ccccc3C2=O)cc1 [SJ000032711-1]	69.9	–
NC1=C(Nc2ccc(I)cc2)C(=O)c2ccccc2C1=O [SJ000032712-1]	69.9	–
NC1=C(Nc2ccc(Br)cc2)C(=O)c2ccccc2C1=O [SJ000032713-1]	69.9	–
CCCCOc1ccc(N(C(C)=O)C2=C(Cl)C(=O)c3ccccc3C2=O)cc1 [SJ000032717-1]	8.71	–
CCCCCOc1ccc(NC2=C(N)C(=O)c3ccccc3C2=O)cc1 [SJ000032723-1]	69.9	–
CCCCCOc1ccc(N(C(C)=O)C2=C(Cl)C(=O)c3ccccc3C2=O)cc1 [SJ000032724-1]	28.3	–
O=C1C(Cl)=C(N2CCN(S(=O)(=O)c3ccc(Br)cc3)CC2)C(=O)c2ccccc21 [SJ000033014-1]	69.9	–
CC(=O)Nc1ccc(S(=O)(=O)N2CCN(C3=C(Cl)C(=O)c4ccccc4C3=O)CC2)cc1 [SJ000036320-1]	69.9	–
COc1cccc(-c2nc(S(=O)(=O)c3ccc(C)cc3)c(N3CCOCC3)o2)c1 [SJ000038123-1]	17.4	–
COc1cccc(-c2nc(S(=O)(=O)c3ccc(Cl)cc3)c(N3CCOCC3)o2)c1 [SJ000038124-1]	7.43	–
O=C1C(Cl)=C(N2CCN(S(=O)(=O)c3ccc(F)cc3)CC2)C(=O)c2ccccc21 [SJ000038882-1]	69.9	–
CCOc1ccc(-c2nc(C#N)c(N3CCOCC3)o2)cc1 [SJ000041896-1]	69.9	–
CCOc1ccc(Nc2nc(N)c3ccccc3n2)cc1 [SJ000045621-1]	69.9	–
Nc1nc(Nc2ccc(O)cc2)nc2ccccc12 [SJ000045622-1]	69.9	–
CC(=O)N(C1=C(Cl)C(=O)c2ccccc2C1=O)c1cccc(O)c1 [SJ000046178-1]	69.9	–
O=C1C(Cl)=C(Nc2cccc(Br)c2)C(=O)c2ccccc21 [SJ000048680-1]	69.9	–
O=C1c2ccccc2NC(c2ccc([N+](=O)[O-])cc2)N1Cc1ccccc1 (stereo not shown) [SJ000051049-1]	69.9	–
COc1ccc(-c2nc(C#N)c(N3CCOCC3)o2)cc1 [SJ000051527-1]	69.9	–
CC(=O)NC1=C(N)C(=O)c2ccccc2C1=O [SJ000053101-1]	69.9	–
O=C(NCC(O)CO)c1ccc2[nH]c3ccccc3c2c1 (stereo not shown) [SJ000053810-1]	69.9	–
OCCNCCNCc1ccc2[nH]c3ccccc3c2c1 [SJ000053962-1]	69.9	–
